In patent publication US20110151034A1, “ANTIBACTERIAL AGENT AND DISINFECTING METHOD” (Mitsubishi Chemical Corporation, priority 2008, published 2011):

Tests used:
[1] = test system: Listeria monocytogenes ATCC49594; assay: Antibacterial test in BHI culture medium: turbidity, inhibitory ratio and bacteria growth (Experimental Example 2); type: cell-based; conditions: for Number of bacteria (cfu/ml): culture 30° C. 24 hours, then BHI agar 37° C. 24 hours; for Inhibitory ratio (%): from turbidity vs dimethylsulfoxide standard; for Inhibitory ratio (%) / Turbidity of culture fluid: 30° C. for 24 hours; for Turbidity of culture fluid: 660 nm
Description: The above obtained isolated components were diluted with dimethylsulfoxide (manufactured by KANTO CHEMICAL CO., INC.) to prepare three test liquids at fraction concentrations (wt %) of 2%, 1% and 0.5%. As positive controls, erythromycin (manufactured by Wako Pure Chemical Industries Ltd.) was dissolved in ethanol (Junsei Chemical Co., Ltd.) to have a concentration of 1,000 ppm, 500 ppm or 250 ppm. As a negative control, sterilized water was used.
The antibacterial test was carried out by using Listeria monocytogenes ATCC49594 as follows.
(1) 8.9 ml of a brain heart infusion (BHI) culture medium (manufactured by NISSUI PHARMACEUTICAL CO., LTD.) was put in a test tube and treated in an autoclave (manufactured by TOMY SEIKO CO., LTD., TOMY BS-325). The culture medium concentration was adjusted to achieve a specified concentration when 0.1 ml of the above test liquid was added.
Listeria monocytogenes ATCC 49594 was cultured in the BHI culture medium by shake culture at 37° C. for 1 hour and diluted to an appropriate bacteria concentration (2.0×10^3 cfu/ml) by the BHI culture medium.
To the test tube in which 8.9 ml of the BHI culture medium prepared in the above (1) was put, 0.1 ml of the prepared test liquid and 1 ml of the bacteria liquid prepared in the above (2) were added, stirred and left at rest at 30° C. for 24 hours.
The turbidity of the culture fluid in the test tube left at rest at 30° C. for 24 hours was measured by a turbidimeter (manufactured by TAITEC CORPORATION, miniphoto 518R) at a wavelength of 660 nm. The inhibitory ratio was calculated from the following formula, where A is the turbidly in the case of a culture fluid to which 0.1 ml of dimethylsulfoxide was added instead of the test liquid.
Inhibitory ratio (%)=[(A−[turbidity of culture fluid])/A]×100
The culture fluid in the test tube left at rest at 30° C. for 24 hours was diluted with a phosphate buffer solution (PBS) and smeared on a BHI agar medium. After culturing at 37° C. for 24 hours, the number of bacteria on the agar medium was measured by observation with a microscope. With respect to the dilution with PBS, the culture fluid was preliminarily properly diluted within a range of from 10^2 to 10^9 times to such a concentration that the number of bacteria can be counted with a microscope 24 hour later (the number of bacteria 24 hours later was calibrated in accordance with the proportion preliminarily diluted with PBS).

[2] = test system: Listeria monocytogenes JCM2873; assay: Antibacterial test, colony formation on Mueller Hinton agar after culture with sample (Experimental Example 1); type: cell-based; conditions: 10 ppm at the time of test; 37° C. for 24 hours, then agar 37° C. for 2 days; negative control 3×10^8 cfu/ml
Description: The components (Terpenoid-1 and Terpenoid-2) isolated from the water-insoluble rosemary extract were dissolved in DMSO (dimethylsulfoxide) at a concentration of 2,000 ppm to obtain samples for antibacterial activity test. The antibacterial test was carried out as follows using Listeria monocytogenes JCM2873. 8.95 ml of Mueller Hinton Broth (MHB) culture medium was put in a test tube and sterilized in an autoclave. The culture medium concentration was adjusted to achieve a specified concentration when 50 μl of the sample was added. Listeria monocytogenes JCM2873 was cultured by shake culture at 37° C. for 1 day in the MHB culture medium, and diluted to an appropriate bacteria concentration (3.1×10^4 cfu/ml) by the MHB culture medium. To the test tube in which 8.95 ml of the MHB culture medium prepared in the above (1) was put, 50 μl of the sample and 1 ml of the bacteria liquid prepared in the above (2) were added and stirred (isolated component concentration at the time of test: 10 ppm) and left at rest at 37° C. for 24 hours. As a negative control and a positive control, sterilized water and erythromycin (solution at a concentration of 2,000 ppm in ethanol) were added instead of the sample. From the test tube left at rest at 37° C. for 24 hours, a loopful of the culture fluid was collected and smeared on a Mueller Hinton agar medium. After culturing at 37° C. for 2 days, formation of colonies on the agar medium and its degree were judged.

[3] = 50, 100, 200 ppm, same conditions as for Terpenoid-1 and Terpenoid-2
[4] = at a concentration of 50 ppm or higher

| Structure (SMILES) | antibacterial activity against Listeria monocytogenes (in words) [1, 3] | Number of bacteria (cfu/ml) ([1]; added substance 50 ppm) | Inhibitory ratio (%) ([1]; added substance 50 ppm) | Number of bacteria (cfu/ml) ([1]; added substance 100 ppm) | Inhibitory ratio (%) ([1]; added substance 100 ppm) | Number of bacteria (cfu/ml) ([1]; added substance 200 ppm) | Inhibitory ratio (%) ([1]; added substance 200 ppm) | formation of colonies on the agar medium [2] | further results |
| --- | --- | --- | --- | --- | --- | --- | --- | --- | --- |
| COc1c(C(C)C)cc2c(c1O)C1(C(=O)O)CCCC(C)(C)C1CC2 (stereo not drawn) [12-Methoxy-tarns-carnosic acid, 12-methoxy-trans-carnosic acid] | low or no antibacterial activity | 3.1 × 10^9 cfu/ml | 11.8% | 4.1 × 10^9 cfu/ml | 17.7% | 4.3 × 10^9 cfu/ml | 20.6% |  |  |
| CC[C@H]1OC(=O)[C@H](C)[C@@H](O[C@H]2C[C@@](C)(OC)[C@@H](O)[C@H](C)O2)[C@H](C)[C@@H](O[C@@H]2O[C@H](C)C[C@H](N(C)C)[C@H]2O)[C@](C)(O)C[C@@H](C)C(=O)[C@H](C)[C@@H](O)[C@]1(C)O [Erythromycin, erythromycin] |  |  |  |  |  |  |  | no formation of colonies | Turbidity of culture fluid ([1]; added substance 2.5 ppm): 0.011; Number of bacteria (cfu/ml) ([1]; added substance 2.5 ppm): 3.7 × 10^2 cfu/ml; Inhibitory ratio (%) ([1]; added substance 2.5 ppm): 97.8%; Turbidity of culture fluid ([1]; added substance 5 ppm): 0.022; Number of bacteria (cfu/ml) ([1]; added substance 5 ppm): 9.5 × 10^2 cfu/ml; Inhibitory ratio (%) ([1]; added substance 5 ppm): 95.6%; Turbidity of culture fluid ([1]; added substance 10 ppm): −0.008; Number of bacteria (cfu/ml) ([1]; added substance 10 ppm): 1.8 × 10^2 cfu/ml; Inhibitory ratio (%) ([1]; added substance 10 ppm): 98.4%; antibacterial property (in words) ([1]; concentration range of from 2.5 to 10 ppm): high antibacterial property |
| C=C(C)[C@@H]1CC[C@]2(C(=O)O)CC[C@]3(C)[C@H](CC[C@@H]4[C@@]5(C)CC[C@H](O)C(C)(C)[C@@H]5CC[C@]43C)[C@@H]12 [Betulinic acid] |  | 4.0 × 10^9 cfu/ml | 0.0% | 4.5 × 10^9 cfu/ml | 0.0% | 3.0 × 10^9 cfu/ml | 0.0% |  |  |
| CC(C)c1cc2c(c(O)c1O)[C@@]13CCCC(C)(C)[C@@H]1[C@H](OC3=O)[C@H]2O [Rosmanol] | low or no antibacterial activity | 3.9 × 10^9 cfu/ml | 10.2% | 3.7 × 10^9 cfu/ml | 5.1% | 3.9 × 10^9 cfu/ml | 16.0% |  |  |
| CC(C)c1cc2c(cc1O)[C@@]1(C)CCCC(C)(C)[C@@H]1CC2 [Terpenoid-1, ferruginol] |  | 3.8 × 10^9 cfu/ml | 4.6% | 1.6 × 10^9 cfu/ml | 43.0% | 3.8 × 10^6 cfu/ml | 100% | no formation of colonies | Turbidity of culture fluid ([1]; added substance 50 ppm): 0.485; Turbidity of culture fluid ([1]; added substance 100 ppm): 0.290; Turbidity of culture fluid ([1]; added substance 200 ppm): −0.003; antibacterial activity against Listeria monocytogenes (in words) [1, 4]: confirmed to have antibacterial activity |
| CCO[C@H]1c2cc(C(C)C)c(O)c(O)c2[C@@]23CCCC(C)(C)[C@@H]2[C@@H]1OC3=O [7α-Ethoxyrosmanol, 7α-ethoxyrosmanol] | low or no antibacterial activity | 2.5 × 10^9 cfu/ml | 4.0% | 3.6 × 10^9 cfu/ml | 0.5% | 3.8 × 10^9 cfu/ml | 2.6% |  |  |
| CC(C)c1cc2c(cc1O)[C@H]1CCCC(C)(C)[C@@H]1CC2 [Terpenoid-2] |  | 4.4 × 10^9 cfu/ml | 7.2% | 2.5 × 10^9 cfu/ml | 21.0% | 1.3 × 10^9 cfu/ml | 47.2% | no formation of colonies | Turbidity of culture fluid ([1]; added substance 50 ppm): 0.472; Turbidity of culture fluid ([1]; added substance 100 ppm): 0.402; Turbidity of culture fluid ([1]; added substance 200 ppm): 0.268; antibacterial activity against Listeria monocytogenes (in words) [1, 4]: confirmed to have antibacterial activity |
| CC(C)c1cc2c(c(O)c1O)[C@@]13CCCC(C)(C)[C@@H]1[C@H](OC3=O)[C@@H]2O [Epirosmanol] | low or no antibacterial activity | 4.0 × 10^9 cfu/ml | 0.0% | 4.2 × 10^9 cfu/ml | 0.0% | 3.2 × 10^9 cfu/ml | 0.0% |  |  |
| CC(C)c1cc2c(c(O)c1O)[C@@]13CCCC(C)(C)[C@@H]1C[C@@H]2OC3=O [Carnosol] | low or no antibacterial activity | 4.3 × 10^9 cfu/ml | 0.0% | 4.7 × 10^9 cfu/ml | 0.0% | 3.9 × 10^9 cfu/ml | 0.0% |  |  |
